According to patent US12492173B2, “Herbicidal substituted N-tetrazolyl aryl carboxamides” (Bayer Aktiengesellschaft, priority 2019, dated 2025):

Experiments:
Assay type in all cases: in vivo
Stellaria media [1] = assay: Post-emergence herbicidal action, STEME; set-up: key: % herbicidal action vs untreated; 100 = plants died, 0 = like control
Procedure, shortened: (§1)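 Foliar application at the one-leaf stage of greenhouse-grown plants in sandy loam; compound applied as WP or EC in 600–800 l/ha water containing 0.2% wetting agent. Scores are visual percentages (0% like control, 100% plants died) taken after roughly 3 weeks.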

Viola tricolor = assay: Post-emergence herbicidal action, VIOTR; set-up: key: % herbicidal action vs untreated; 100 = plants died, 0 = like control
Procedure, shortened: as §1

Abutilon theophrasti = assay: Post-emergence herbicidal action, ABUTH; set-up: key: % herbicidal action vs untreated; 100 = plants died, 0 = like control
Procedure, shortened: as §1

Amaranthus retroflexus = assay: Pre-emergence herbicidal action, AMARE; conditions: dosage 320 g/ha, scored visually after 3 weeks vs untreated controls (100% = plants have died)
Procedure, shortened: (§2)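 Herbicidal activity is expressed in percent, scored by eye after a 3-week greenhouse period, with 0% matching untreated plants and 100% meaning death. Compounds, as wettable powders or emulsion concentrates, are applied pre-emergence to the covering soil.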

Stellaria media [2] = assay: Pre-emergence herbicidal action, STEME; conditions: dosage 320 g/ha, scored visually after 3 weeks vs untreated controls (100% = plants have died)
Procedure, shortened: as §2

Echinochloa crus-galli = assay: Pre-emergence herbicidal action, ECHCG; conditions: dosage 320 g/ha, scored visually after 3 weeks vs untreated controls (100% = plants have died)
Procedure, shortened: as §2

| Compound | herbicidal action STEME (Stellaria media [1]; post-emergence, dosage 80 g/ha) [%] | herbicidal action VIOTR (Viola tricolor; post-emergence, dosage 80 g/ha) [%] | herbicidal action ABUTH (Abutilon theophrasti; post-emergence, dosage 80 g/ha) [%] | herbicidal activity AMARE (Amaranthus retroflexus) [%] | herbicidal activity STEME (Stellaria media [2]) [%] | herbicidal activity ECHCG (Echinochloa crus-galli) [%] | herbicidal action STEME (Stellaria media [1]; Dosage 80 g/ha) | herbicidal action VIOTR (Viola tricolor; Dosage 80 g/ha) | herbicidal action ABUTH (Abutilon theophrasti; Dosage 80 g/ha) |
| --- | --- | --- | --- | --- | --- | --- | --- | --- | --- |
| CCn1nnnc1NC(=O)c1ccc(C(F)(F)F)c(CSC)c1Br [Example 2-380] | 100 | 100 | 80 | 100 | 80 | 100 | – | – | – |
| CCn1nnnc1NC(=O)c1ccc(C(F)(F)F)c(C[S+](C)[O-])c1Br (stereo not drawn) [Example 2-381] | 100 | 100 | 90 | 100 | 90 | 100 | – | – | – |
| CCn1nnnc1NC(=O)c1ccc(C(F)(F)F)c(CS(C)(=O)=O)c1Br [Example 2-382] | – | – | – | 100 | 90 | 100 | 100 | 100 | 100 |
| CCSCc1c(C(F)(F)F)ccc(C(=O)Nc2nnnn2CC)c1Br [Example 2-383] | 90 | 100 | 100 | 100 | 100 | 100 | – | – | – |
| CCCn1nnnc1NC(=O)c1ccc(C(F)(F)F)c(CS(=O)(=O)CC)c1C [Example 3-88] | – | – | – | 100 | 80 | 100 | 100 | 100 | 80 |
| CCCn1nnnc1NC(=O)c1ccc(C(F)F)c(CSC)c1C [Example 3-107] | – | – | – | 100 | 100 | 100 | 80 | 100 | 80 |
| CCCn1nnnc1NC(=O)c1ccc(C(F)(F)F)c(CSC)c1OC [Example 3-134] | – | – | – | 100 | 100 | 100 | 100 | 100 | 100 |
| CCCn1nnnc1NC(=O)c1ccc(C(F)(F)F)c(CS(C)(=O)=O)c1OC [Example 3-136] | – | – | – | 100 | 100 | 100 | 100 | 100 | 100 |
| CCCn1nnnc1NC(=O)c1ccc(C(F)(F)F)c(CSC)c1Cl [Example 3-296] | – | – | – | 100 | 100 | 100 | 100 | 100 | 100 |
| CCCn1nnnc1NC(=O)c1ccc(C(F)(F)F)c(C[S+](C)[O-])c1Cl (stereo not drawn) [Example 3-297] | 100 | 100 | 80 | 100 | 100 | 100 | – | – | – |
| CCCn1nnnc1NC(=O)c1ccc(C(F)(F)F)c(CSCC)c1Cl [Example 3-299] | – | – | – | 100 | 90 | 100 | 100 | 100 | 90 |
| CCCn1nnnc1NC(=O)c1ccc(C(F)F)c(CSC)c1Cl [Example 3-320] | – | – | – | 100 | 100 | 100 | 100 | 100 | 100 |
| CCCn1nnnc1NC(=O)c1ccc(C(F)F)c(C[S+]([O-])CC)c1Cl (stereo not drawn) [Example 3-324] | – | – | – | 100 | 100 | 100 | 100 | 100 | 100 |
| CCCn1nnnc1NC(=O)c1ccc(C(F)(F)F)c(C[S+](C)[O-])c1Br (stereo not drawn) [Example 3-381] | 100 | 100 | 90 | 100 | 90 | 100 | – | – | – |
| CCCn1nnnc1NC(=O)c1ccc(C(F)(F)F)c(CSCC)c1Br [Example 3-383] | – | – | – | 100 | 100 | 100 | 100 | 100 | 90 |
| CCCn1nnnc1NC(=O)c1ccc(C(F)(F)F)c(CS(=O)(=O)CC)c1Br [Example 3-385] | – | – | – | 100 | 90 | 100 | 100 | 100 | 100 |
